# Data: ChEMBL document CHEMBL1201862, “PubChem BioAssay data set” (2004)
# Active and inactive are the calls of the source.
# Tests used:
# [1] = biological target: T1, DNA repair protein RAD52 homolog (Homo sapiens, UniProt P43351); assay type: functional, biochemical
# T1 sequence (P43351 whole entry): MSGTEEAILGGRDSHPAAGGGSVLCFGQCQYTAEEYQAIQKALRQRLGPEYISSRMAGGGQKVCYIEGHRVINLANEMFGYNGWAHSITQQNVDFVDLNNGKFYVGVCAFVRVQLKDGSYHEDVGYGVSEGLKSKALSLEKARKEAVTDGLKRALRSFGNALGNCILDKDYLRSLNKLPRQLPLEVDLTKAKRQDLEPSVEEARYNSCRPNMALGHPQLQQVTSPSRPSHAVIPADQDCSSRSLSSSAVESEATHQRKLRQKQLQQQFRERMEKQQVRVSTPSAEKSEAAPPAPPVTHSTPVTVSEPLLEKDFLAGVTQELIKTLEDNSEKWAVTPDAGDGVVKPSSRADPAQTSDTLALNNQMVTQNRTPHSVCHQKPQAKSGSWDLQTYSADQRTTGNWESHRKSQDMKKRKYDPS
# [2] = inhibitors of firefly luciferase expression or activity, dose response, H4 neuroglioma cells, luminescence (AID 1990); assay type: functional, cell-based
# [3] = Luminescence Cell-Based Dose Response HTS to Identify Inhibitors of 5'UTR Stem-Loop Driven Prion Protein mRNA Translation in H4 Neuroglioblastoma Cells. [Related pubchem assays: 1827 (Project Summary), 1813 (Primary HTS)]; assay type: functional
# [4] = inhibitors of SNCA 5'UTR-driven reporter translation, confirmation, H4 neuroglioma cells, luminescence (AID 1988); assay type: functional, cell-based
# [5] = inhibitors of intracellular T. cruzi replication, confirmation, NIH3T3 host cells, beta-gal luminescence (AID 2044); assay type: functional, cell-based;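 further: intracellular parasites grown in NIH/3T3 mouse fibroblasts as host cells; luminescent beta-galactosidase reporter signal from transgenic T. cruzi replicating inside host cells; inhibitors lower the luminescence signal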
# [6] = cytotoxicity toward NIH3T3 fibroblasts, dose response, counter-screen, cell-based, ATP luminescence, mouse fibroblasts (AID 2010); assay type: functional;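 further: cells exposed to compound for about 90 hours before reading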
# [7] = Shn3 3'UTR reporter inhibitors, dose response, cell-based, Clone20 osteoblasts, firefly luciferase, cherry-picked (AID 624132); assay type: functional;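 further: firefly luciferase luminescence from reporter carrying the Shn3 3'UTR in osteoblasts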
# [8] = HepG2 cell cytotoxicity, dose response, cytotoxicity control for Shn3 inhibitor project, CellTiter-Glo, cherry-picked (AID 624134); assay type: functional, cell-based
# [9] = control 3'UTR Renilla luciferase suppression, dose response, counter-screen for Shn3 inhibitor project, cell-based, Clone20-Shn3RL, cherry-picked (AID 624133); assay type: functional
# [10] = biological target: T2, Fatty acid synthase (Homo sapiens, UniProt P49327); test: FAS thioesterase domain inhibitors, dose response, biochemical, endpoint fluorescence intensity, uHTS hits (AID 624327); assay type: functional;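 further: fluorescence from hydrolysis of an O-methyl fluorescein acyl ester substrate by the enzyme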
# [11] = biological target: T2, Fatty acid synthase; test: FAS thioesterase domain inhibitors, dose response, biochemical, kinetic fluorescence intensity (AID 624326); assay type: functional;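 further: rate of fluorescence rise from hydrolysis of a fluorogenic O-methyl fluorescein ester substrate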
# [12] = growth suppression of PTEN-null colon cells, dose response, cell-based, HCT116 PTEN knockout (AID 1047); assay type: functional;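 further: HCT116 colon tumor cells with PTEN knocked out; cells exposed to compound for 60 hours before readout; potency for loss of cell viability measured by luminescence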
# [13] = growth suppression of beta-catenin-knockout colon cells, dose response, cell-based, HCT116, human colon tumor (AID 1045); assay type: functional;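 further: HCT116 colon tumor cells with beta catenin knocked out; cells exposed to compound for 60 hours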
# [14] = biological target: T3, High affinity choline transporter 1 (Homo sapiens, UniProt Q9GZV3); test: CHT inhibitors, dose response, cell-based, 5-point CRC, membrane potential dye (AID 504840); assay type: functional
# T3 sequence (Q9GZV3 whole entry): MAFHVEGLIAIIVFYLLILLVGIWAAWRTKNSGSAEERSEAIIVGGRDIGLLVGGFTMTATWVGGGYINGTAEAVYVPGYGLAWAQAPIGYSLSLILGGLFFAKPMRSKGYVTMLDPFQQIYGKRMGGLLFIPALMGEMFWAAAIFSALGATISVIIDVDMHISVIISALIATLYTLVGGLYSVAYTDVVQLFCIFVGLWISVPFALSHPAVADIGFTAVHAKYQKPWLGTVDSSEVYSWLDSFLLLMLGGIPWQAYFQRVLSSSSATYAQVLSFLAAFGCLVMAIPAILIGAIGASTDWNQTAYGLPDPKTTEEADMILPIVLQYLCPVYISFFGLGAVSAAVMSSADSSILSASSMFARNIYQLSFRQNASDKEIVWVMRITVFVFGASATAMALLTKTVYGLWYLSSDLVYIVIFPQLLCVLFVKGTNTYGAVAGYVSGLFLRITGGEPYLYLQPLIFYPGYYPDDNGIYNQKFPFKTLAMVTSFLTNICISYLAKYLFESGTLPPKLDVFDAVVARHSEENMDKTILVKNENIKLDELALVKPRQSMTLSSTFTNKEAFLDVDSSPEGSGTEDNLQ
# [15] = biological target: Genome polyprotein (dengue virus type 2, UniProt P29990); test: Dengue-2 NS5 methyltransferase inhibitors, primary screen, biochemical, confirmation dose response (AID 588689); assay type: functional
# [16] = biological target: T4, Carboxy-terminal domain RNA polymerase II polypeptide A small phosphatase 1 (Homo sapiens, UniProt Q9GZU7); test: inhibitors of CTDSP1, concentration-response testing, biochemical assay, absorbance-based, actives from ultra-high-throughput screening (AID 540297); assay type: functional
# T4 sequence (Q9GZU7 whole entry): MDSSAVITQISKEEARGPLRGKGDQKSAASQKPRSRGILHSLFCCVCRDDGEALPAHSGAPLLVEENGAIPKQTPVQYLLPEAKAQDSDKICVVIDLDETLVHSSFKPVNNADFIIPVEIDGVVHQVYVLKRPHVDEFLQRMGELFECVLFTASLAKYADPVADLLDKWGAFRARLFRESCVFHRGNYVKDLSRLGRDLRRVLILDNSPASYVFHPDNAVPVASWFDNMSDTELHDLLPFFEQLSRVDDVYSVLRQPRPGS
# [17] = biological target: T5, Rac GTPase-activating protein 1 (Homo sapiens, UniProt Q9H0H5); test: MgcRacGAP GTPase-activating activity inhibitors, confirmation, biochemical, ADP Hunter fluorescence, primary and confirmatory (AID 624330); assay type: functional
# T5 sequence (Q9H0H5 whole entry): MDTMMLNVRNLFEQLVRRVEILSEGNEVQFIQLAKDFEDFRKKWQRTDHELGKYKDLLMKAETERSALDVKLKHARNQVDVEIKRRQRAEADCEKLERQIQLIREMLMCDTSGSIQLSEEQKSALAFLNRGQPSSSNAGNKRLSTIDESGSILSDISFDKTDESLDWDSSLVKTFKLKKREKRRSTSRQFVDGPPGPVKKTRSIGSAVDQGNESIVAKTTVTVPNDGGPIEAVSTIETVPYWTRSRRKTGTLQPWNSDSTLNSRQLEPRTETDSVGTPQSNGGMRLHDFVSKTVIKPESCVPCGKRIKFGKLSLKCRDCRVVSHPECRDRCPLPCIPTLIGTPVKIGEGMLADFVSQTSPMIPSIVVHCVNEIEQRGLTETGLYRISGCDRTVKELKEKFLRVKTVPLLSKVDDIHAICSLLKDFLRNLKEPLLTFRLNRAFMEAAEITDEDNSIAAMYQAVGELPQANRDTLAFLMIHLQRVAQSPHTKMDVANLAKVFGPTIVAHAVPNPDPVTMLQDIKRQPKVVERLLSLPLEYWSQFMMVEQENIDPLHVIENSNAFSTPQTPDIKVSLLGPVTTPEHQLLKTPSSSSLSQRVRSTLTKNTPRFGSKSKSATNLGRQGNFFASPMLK
# [18] = cytotoxicity in HEK-293T cells, dose response, cytotoxicity control for TCR NF-kB inhibitor project, luminescence, T-cell screen hits (AID 489026); assay type: functional, cell-based;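 further: cells exposed to compound about 14 hours before the viability readout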
# [19] = THP-1 cell cytotoxicity, dose response, cytotoxicity control for non-replicating M. tuberculosis project (AID 489025); assay type: functional
# [20] = biological target: Induced myeloid leukemia cell differentiation protein Mcl-1 (Homo sapiens, UniProt Q07820); assay type: functional
# [21] = test system: Streptococcus sp. 'group A'; test: growth inhibition of control SK(-) GAS strain, dose response, counter-screen for streptokinase expression inhibitor project, luminescence, kanamycin, BacTiterGlo, confirmation (AID 1900); assay type: functional, organism-based
# [22] = test system: Streptococcus; test: Group A Streptococcus viability loss, dose response, counter-screen for streptokinase expression inhibitor project, luminescence, BacTiterGlo (AID 1915); assay type: functional, organism-based;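 further: potency for reduction of bacterial viability or growth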
# [23] = cells; assay type: functional
# Chain of Genome polyprotein (P29990 2492-3391 limits assumed): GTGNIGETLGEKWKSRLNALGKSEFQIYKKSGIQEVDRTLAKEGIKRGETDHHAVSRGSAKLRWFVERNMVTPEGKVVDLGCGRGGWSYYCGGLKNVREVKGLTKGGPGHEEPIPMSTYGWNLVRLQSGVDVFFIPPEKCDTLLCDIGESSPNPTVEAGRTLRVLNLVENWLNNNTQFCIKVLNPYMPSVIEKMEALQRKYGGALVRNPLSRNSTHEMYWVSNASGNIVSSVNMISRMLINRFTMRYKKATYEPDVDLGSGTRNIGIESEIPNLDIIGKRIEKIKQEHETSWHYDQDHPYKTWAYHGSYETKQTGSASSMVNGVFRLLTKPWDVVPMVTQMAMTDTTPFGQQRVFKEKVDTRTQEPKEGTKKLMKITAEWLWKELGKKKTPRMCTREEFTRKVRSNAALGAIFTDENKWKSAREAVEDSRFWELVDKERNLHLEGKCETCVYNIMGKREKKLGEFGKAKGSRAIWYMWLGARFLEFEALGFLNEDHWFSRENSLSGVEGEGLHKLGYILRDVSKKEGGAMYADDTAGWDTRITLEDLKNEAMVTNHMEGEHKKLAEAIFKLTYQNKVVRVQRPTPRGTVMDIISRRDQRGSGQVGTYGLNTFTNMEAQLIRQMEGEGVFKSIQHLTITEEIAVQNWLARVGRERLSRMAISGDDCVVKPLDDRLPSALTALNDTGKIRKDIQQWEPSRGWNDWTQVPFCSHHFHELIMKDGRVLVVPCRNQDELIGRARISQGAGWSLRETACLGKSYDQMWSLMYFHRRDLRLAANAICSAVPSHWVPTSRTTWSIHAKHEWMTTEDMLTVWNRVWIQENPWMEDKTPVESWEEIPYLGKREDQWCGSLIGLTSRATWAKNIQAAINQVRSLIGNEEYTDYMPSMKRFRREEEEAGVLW
# T2 sequence (P49327 whole entry, the tested form may be a part): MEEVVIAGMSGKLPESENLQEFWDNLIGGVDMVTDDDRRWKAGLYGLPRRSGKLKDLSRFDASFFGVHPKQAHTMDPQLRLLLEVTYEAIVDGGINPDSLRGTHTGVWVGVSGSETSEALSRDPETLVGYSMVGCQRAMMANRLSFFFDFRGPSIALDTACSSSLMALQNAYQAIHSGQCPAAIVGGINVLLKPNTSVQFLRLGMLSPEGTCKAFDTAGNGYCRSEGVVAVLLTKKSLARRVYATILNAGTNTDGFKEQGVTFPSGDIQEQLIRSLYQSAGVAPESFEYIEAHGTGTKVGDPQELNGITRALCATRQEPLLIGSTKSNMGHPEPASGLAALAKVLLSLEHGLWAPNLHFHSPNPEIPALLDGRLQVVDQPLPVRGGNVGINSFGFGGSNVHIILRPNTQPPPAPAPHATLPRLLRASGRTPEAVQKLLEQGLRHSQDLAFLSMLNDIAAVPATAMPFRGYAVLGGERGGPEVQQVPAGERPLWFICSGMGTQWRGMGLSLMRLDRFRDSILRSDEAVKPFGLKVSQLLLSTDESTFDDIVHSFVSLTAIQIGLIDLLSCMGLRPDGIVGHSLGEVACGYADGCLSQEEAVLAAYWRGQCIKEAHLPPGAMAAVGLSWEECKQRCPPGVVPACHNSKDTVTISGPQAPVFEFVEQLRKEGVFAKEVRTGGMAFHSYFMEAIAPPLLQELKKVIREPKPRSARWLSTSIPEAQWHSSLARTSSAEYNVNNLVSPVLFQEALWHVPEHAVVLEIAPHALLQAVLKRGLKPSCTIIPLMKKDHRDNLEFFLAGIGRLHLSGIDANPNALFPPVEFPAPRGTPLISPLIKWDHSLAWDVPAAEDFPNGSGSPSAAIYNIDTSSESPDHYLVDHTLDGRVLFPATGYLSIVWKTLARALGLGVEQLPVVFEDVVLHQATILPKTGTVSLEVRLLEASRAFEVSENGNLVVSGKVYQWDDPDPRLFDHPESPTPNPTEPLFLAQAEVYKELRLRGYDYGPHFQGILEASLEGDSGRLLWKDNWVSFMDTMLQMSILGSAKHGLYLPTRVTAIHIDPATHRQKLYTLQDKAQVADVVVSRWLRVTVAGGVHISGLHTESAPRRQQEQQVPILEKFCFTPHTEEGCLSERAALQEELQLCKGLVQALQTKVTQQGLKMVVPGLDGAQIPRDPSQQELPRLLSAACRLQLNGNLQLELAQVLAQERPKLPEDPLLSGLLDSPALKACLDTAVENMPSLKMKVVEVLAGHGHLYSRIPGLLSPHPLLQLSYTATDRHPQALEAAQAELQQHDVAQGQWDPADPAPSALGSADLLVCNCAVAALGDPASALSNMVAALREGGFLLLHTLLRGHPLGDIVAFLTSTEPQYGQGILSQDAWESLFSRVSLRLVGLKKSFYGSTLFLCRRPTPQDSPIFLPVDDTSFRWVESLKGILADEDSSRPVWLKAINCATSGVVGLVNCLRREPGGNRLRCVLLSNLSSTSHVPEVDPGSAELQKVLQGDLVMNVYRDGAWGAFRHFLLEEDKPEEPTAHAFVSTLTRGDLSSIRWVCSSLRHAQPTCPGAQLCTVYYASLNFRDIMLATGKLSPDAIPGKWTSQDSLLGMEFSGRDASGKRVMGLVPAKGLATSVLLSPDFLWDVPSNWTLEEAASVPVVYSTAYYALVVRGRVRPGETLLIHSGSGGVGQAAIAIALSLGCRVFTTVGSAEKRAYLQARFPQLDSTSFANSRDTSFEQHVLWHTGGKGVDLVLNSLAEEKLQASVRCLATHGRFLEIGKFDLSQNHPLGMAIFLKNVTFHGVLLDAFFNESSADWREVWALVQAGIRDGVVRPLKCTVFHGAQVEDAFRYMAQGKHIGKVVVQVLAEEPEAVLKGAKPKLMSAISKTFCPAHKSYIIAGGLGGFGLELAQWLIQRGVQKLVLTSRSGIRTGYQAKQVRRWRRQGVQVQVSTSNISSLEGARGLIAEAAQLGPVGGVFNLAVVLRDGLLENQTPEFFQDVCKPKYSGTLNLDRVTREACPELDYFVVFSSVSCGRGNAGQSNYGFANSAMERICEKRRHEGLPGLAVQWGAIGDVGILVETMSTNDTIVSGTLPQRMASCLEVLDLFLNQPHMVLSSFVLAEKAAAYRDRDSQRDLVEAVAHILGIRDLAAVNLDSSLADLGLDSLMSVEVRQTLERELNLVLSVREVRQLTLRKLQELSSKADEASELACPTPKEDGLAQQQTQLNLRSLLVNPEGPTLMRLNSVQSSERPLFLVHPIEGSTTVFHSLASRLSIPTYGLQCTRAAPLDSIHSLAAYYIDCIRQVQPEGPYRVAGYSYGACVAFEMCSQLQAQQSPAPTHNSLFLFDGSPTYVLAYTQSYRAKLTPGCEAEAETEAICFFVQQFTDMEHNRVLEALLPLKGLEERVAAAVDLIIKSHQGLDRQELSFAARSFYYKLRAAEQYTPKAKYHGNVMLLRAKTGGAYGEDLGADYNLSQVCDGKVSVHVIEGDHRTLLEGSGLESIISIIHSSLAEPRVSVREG
# Chain of Induced myeloid leukemia cell differentiation protein Mcl-1 (Q07820 whole entry): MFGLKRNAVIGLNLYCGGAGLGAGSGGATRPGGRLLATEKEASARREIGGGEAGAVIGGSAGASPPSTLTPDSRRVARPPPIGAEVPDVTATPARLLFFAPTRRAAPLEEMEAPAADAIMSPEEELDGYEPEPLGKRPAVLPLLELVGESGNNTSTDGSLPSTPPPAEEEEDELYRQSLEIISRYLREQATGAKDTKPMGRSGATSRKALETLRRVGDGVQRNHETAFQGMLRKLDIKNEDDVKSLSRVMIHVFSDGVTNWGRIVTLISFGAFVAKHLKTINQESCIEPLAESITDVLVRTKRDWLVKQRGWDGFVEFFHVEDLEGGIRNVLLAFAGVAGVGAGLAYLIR
smiles,measurement,setting,value
CCN(CC)CCCN(C(=O)c1cccc(C)c1)c1nc(-c2ccc(OC)cc2)cs1,AC50,[1],17.2 µM (active)
CCOC(=O)c1c(CSc2ccc(CC)cc2)oc2ccc(O)c(CN(C)C)c12,EC50,[2],> 120 µM (not active)
same,EC50,[3],> 120 µM (not active)
same,EC50,[4],> 120 µM (not active)
same,EC50,[5],2.81 µM (active)
same,EC50,[6],> 30 µM (not active)
same,AC50,[7],3.05 µM (active)
same,AC50,[8],30.8 µM (active)
same,AC50,[9],14.1 µM (active)
same,AC50,[1],15.3 µM (active)
Cc1cc(NC(=O)COC(=O)c2cc([N+](=O)[O-])ccc2N2CCOCC2)ccc1Br,IC50,[10],2.82 µM (active)
same,IC50,[11],4.33 µM (active)
CCCn1c(CN2CCN(c3cccc(Cl)c3)CC2)nc2c1c(=O)n(C)c(=O)n2C,EC50,[12],39.9 µM (active)
same,EC50,[13],33.1 µM (active)
same,IC50,[14],14.2 µM (active)
O=C(NN1C(=O)C2C(c3ccccc3)C=CC(c3ccccc3)C2C1=O)c1cccc(Br)c1 (centres undefined),IC50,[10],12.1 µM (active)
same,IC50,[11],9.22 µM (active)
O=C1NC(=O)N(c2ccc3c(c2)OCO3)C(=O)/C1=C\c1ccc(-c2ccccc2C(=O)O)o1,IC50,[15],> 100 µM (active)
same,IC50,[16],3.9 µM (active)
same,IC50,[17],75.4 µM (active)
COc1cc(/C=C2\SC(NS(=O)(=O)Cc3ccccc3)=NC2=O)c([N+](=O)[O-])cc1OC,IC50,[14],9.12 µM (active)
same,IC50,[15],55.8 µM (active)
CCCCNC(=O)c1onc(CSc2cccc3ccccc23)c1C(=O)O,IC50,[15],49.6 µM (active)
CCOc1nc(SCCOc2ccc(C)cc2)nc(N(C)C)n1,EC50,[12],45 µM (active)
same,EC50,[13],56.2 µM (active)
Cc1c(C(=O)N2CCOCC2)[nH]c2c1C(=O)CC(c1ccccc1Cl)C2 (centres undefined),IC50,[18],> 80 µM (inactive)
Clc1ccc(CN2C3=NCCCN3c3ccccc32)cc1,CC50,[19],> 40 µM (active)
COc1ccc(NC(=O)c2ccccc2N(Cc2ccccc2)S(C)(=O)=O)cc1,IC50,[20],40.6 µM (not active)
Cc1ccccc1OCCCCc1c(C)n[nH]c1C,EC50,[21],9.02 µM (active)
same,EC50,[22],19 µM (active)
same,CC50,[19],> 40 µM (active)
same,IC50,[23],7 µM (active)
COC(=O)c1ccc(C2c3c(oc4ccc(Cl)cc4c3=O)C(=O)N2CCN2CCOCC2)cc1 (centres undefined),IC50,[10],14.6 µM (active)
same,IC50,[11],11.6 µM (active)
